Source: US8198311B2, “Modulators of glucocorticoid receptor, AP-1, and/or NF-κB activity and use thereof” (Bristol-Myers Squibb Company, priority 2006, dated 2012)
Where two headings read alike, the source gives them in different places.

Experiments:
[1] = target: T1, human glucocorticoid receptor (Homo sapiens, UniProt P04150); assay: Glucocorticoid Receptor Binding Assay (I), fluorescence polarization competitor kit (Fluormone GS Red); settings: purified human recombinant full-length GR
T1 construct: purified human recombinant full-length glucocorticoid receptor (2 nM); purchased Invitrogen Part # 2893
T1 sequence (P04150 1-777): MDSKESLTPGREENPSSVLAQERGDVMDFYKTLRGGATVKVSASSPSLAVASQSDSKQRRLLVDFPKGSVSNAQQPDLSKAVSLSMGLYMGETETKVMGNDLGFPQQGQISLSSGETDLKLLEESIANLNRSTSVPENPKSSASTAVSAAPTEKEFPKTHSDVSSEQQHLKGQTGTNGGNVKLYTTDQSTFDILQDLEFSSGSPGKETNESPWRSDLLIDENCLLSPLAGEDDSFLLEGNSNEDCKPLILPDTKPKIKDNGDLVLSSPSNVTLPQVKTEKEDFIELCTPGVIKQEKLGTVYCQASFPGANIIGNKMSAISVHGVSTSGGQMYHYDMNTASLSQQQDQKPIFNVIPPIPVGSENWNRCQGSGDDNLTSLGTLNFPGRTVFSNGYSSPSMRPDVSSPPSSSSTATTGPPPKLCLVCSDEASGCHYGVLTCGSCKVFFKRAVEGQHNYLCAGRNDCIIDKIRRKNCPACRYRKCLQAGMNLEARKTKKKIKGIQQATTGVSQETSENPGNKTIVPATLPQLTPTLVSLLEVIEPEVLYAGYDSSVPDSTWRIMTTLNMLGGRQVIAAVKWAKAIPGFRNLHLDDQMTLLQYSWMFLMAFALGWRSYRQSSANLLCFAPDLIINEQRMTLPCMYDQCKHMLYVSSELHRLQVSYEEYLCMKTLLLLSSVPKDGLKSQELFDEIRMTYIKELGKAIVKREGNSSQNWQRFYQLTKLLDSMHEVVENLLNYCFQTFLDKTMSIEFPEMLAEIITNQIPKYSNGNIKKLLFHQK
Method: In order to assess the affinity of test compounds for the human glucocorticoid receptor, a commercially available kit was used (Glucocorticoid Receptor Competitor Assay Kit, Invitrogen Part # 2893). Briefly, purified human recombinant full-length glucocorticoid receptor (2 nM) was mixed with fluorescently labeled glucocorticoid (1 nM Fluormone GS Red) in the presence or absence of test compound. After two hour incubation at room temperature in the dark, the fluorescence polarization (FP) of the samples was measured. […] Test compounds were analyzed in the concentration range from 8.5E-05 μM to 5 μM.

[2] = system: AP-1 induced transcriptional activity; assay: Cellular Transrepressional Assay (AP-1 luciferase reporter in A549 cells, PMA-activated); assay type: cell-based; settings: pAP-1-Luc, 10 ng/ml PMA, read-out: AP-1 (EC50, nM) (Cellular Transrepression Assay)
Method: To measure the ability of test molecules to inhibit AP-1 induced transcriptional activity an A549 cell was utilized which was stably transfected with a plasmid containing 7×AP-1 DNA binding sites (pAP-1-Luc plasmid, Stratagene Co. La Jolla, Calif.) followed by the gene for luciferase. Cells were activated with 10 ng/ml of phorbol myristic acid (PMA) plus or minus test molecules for 7 hours. After 7 hours a luciferase reagent was added to measure luciferase enzymatic activity in the cell. After a 10 minute incubation of luciferase reagent with cells, luminescence was measured in a TopCount luminescence counter. Repression of AP-1 activity was calculated as the percentage decrease in the signal induced by PMA alone. Test molecules were analyzed in the concentration range from 0.1 nM to 40 μM. EC50s were determined by using standard curve fitting methods such as Excel fit (Microsoft Co.).

SMILES	Ki [1] [nM]	EC50 ([2]; Homo sapiens, A549, 7 h) [nM]	EC50 ([2]; 7 hours) [nM]
CC(C)CC(c1ccc2c(cnn2-c2ccc(F)cc2)c1)C(C)(C)CNC(=O)N(C)C (centres unmarked) [Example 55, 3-(3-(1-(4-fluorophenyl)-1H-indazol-5-yl)-2,2,5-trimethylhexyl)-1,1-dimethylurea]	1.4	698	
CC(C)CC(c1ccc2c(cnn2-c2ccc(F)cc2)c1)C(C)(C)CNC(=O)N[C@@H](C)c1cccc2ccccc12 (stereo partly drawn) [Example 76, 1-(3-(1-(4-fluorophenyl)-1H-indazol-5-yl)-2,2,5-trimethylhexyl)-3-((S)-1-(naphthalene-1-yl)ethyl)urea]	8.7	> 10000	
CC(C)(CNC(=O)CC(F)(F)F)[C@@H](c1ccccc1)c1ccc2c(cnn2-c2ccc(F)cc2)c1 [(S)-17, (S)-3,3,3-trifluoro-N-(3-(1-(4-fluorophenyl)-1H-indazol-5-yl)-2,2-dimethyl-3-phenylpropyl)-propanamide]	0.63	13	
CCCS(=O)(=O)NCC(C)C(c1ccccc1)c1ccc2c(cnn2-c2ccc(F)cc2)c1 (centres unmarked) [Example 95, N-(3-(1-(4-fluorophenyl)-1H-indazol-5-yl)-2-methyl-3-phenylpropyl)propane-1-sulfonamide]	1.2	27	
CC(C)(C)NC(=O)NCC(C)(C)C(CCCO)c1ccc2c(cnn2-c2ccc(F)cc2)c1 (centres unmarked) [Example 107, 1-tert-Butyl-3-(3-(1-(4-fluorophenyl)-1H-indazol-5-yl)-6-hydroxy-2,2-dimethylhexyl)urea]	3.1	2020	
CC(C)CC(c1ccc2[nH]ncc2c1)C(C)(C)CNC(=O)NC(C)(C)C (centres unmarked) [Example 70, 1-(3-(1H-indazol-5-yl)-2,2,5-trimethylhexyl)-3-tert-butylurea]	44	> 10000	
CCS(=O)(=O)NCC(C)C(c1ccccc1)c1ccc2c(cnn2-c2ccc(F)cc2)c1 (centres unmarked) [Example 93, N-(3-(1-(4-fluorophenyl)-1H-indazol-5-yl)-2-methyl-3-phenylpropyl)ethanesulfonamide]	0.92	5.6	
O=S(=O)(CC(F)(F)F)NCC(c1ccccc1)C(c1ccccc1)c1ccc2c(cnn2-c2ccc(F)cc2)c1 (centres unmarked) [Example 100, 2,2,2-Trifluoro-N-(3-(1-(4-fluorophenyl)-1H-indazol-5-yl)-2,3-diphenylpropyl)ethanesulfonamide]	18.3	5000	
CC(C)CC(c1ccc2c(cnn2-c2ccc(F)cc2)c1)C(C)(C)CNC(=O)N[C@H](C)CO (stereo partly drawn) [Example 45, 1-(3-(1-(4-fluorophenyl)-1H-indazol-5-yl)-2,2,5-trimethylhexyl)-3-((R)-1-hydroxypropan-2-yl)urea]	2.1	1540	
CC(C)CC(c1ccc2c(cnn2-c2ccc(F)cc2)c1)C(C)(C)CNC(=O)NC(C)(C)Cc1ccc(F)cc1 (centres unmarked) [Example 54, 1-(3-(1-(4-fluorophenyl)-1H-indazol-5-yl)-2,2,5-trimethylhexyl)-3-(1-(4-fluorophenyl)-2-methylpropan-2-yl)urea]	22	285	
CC(C)CC(c1ccc2c(cnn2-c2ccc(F)cc2)c1)C(C)(C)CNC(=O)N1CCC[C@@H]1CO (stereo partly drawn) [Example 39, (2R)-N-(3-(1-(4-fluorophenyl)-1H-indazol-5-yl)-2,2,5-trimethylhexyl)-2-(hydroxymethyl)pyrrolidine-1-carboxamide]	3.2	> 10000	
CC(C)(CNS(=O)(=O)CC(F)(F)F)[C@@H](c1ccccc1)c1ccc2c(cnn2-c2ccc(F)cc2)c1 [Example 18, (S)-2,2,2-trifluoro-N-(3-(1-(4-fluorophenyl)-1H-indazol-5-yl)-2,2-dimethyl-3-phenylpropyl)ethanesulfonamide]	1.1	25	
CCCC(CNS(=O)(=O)CC(F)(F)F)C(c1ccccc1)c1ccc2c(cnn2-c2ccc(F)cc2)c1 (centres unmarked) [Example 99, 2,2,2-Trifluoro-N-(2-((1-(4-fluorophenyl)-1H-indazol-5-yl)(phenyl)methyl)pentyl)ethanesulfonamide]	6.1	40	
CC(C)(C)NC(=O)NCC(C)(C)C(c1ccc2c(cnn2-c2ccc(F)cc2)c1)C1CCCC1 (centres unmarked) [Example 106, 1-tert-butyl-3-(3-cyclopentyl-3-(1-(4-fluorophenyl)-1H-indazol-5-yl)-2,2-dimethylpropyl)urea]	3.3	304	
CC(C)CC(c1ccc2c(cnn2-c2ccc(F)cc2)c1)C(C)(C)CNC(=O)NCC(C)(C)C (centres unmarked) [Example 35, 1-(3-(1-(4-fluorophenyl)-1H-indazol-5-yl)-2,2,5-trimethylhexyl)-3-neopentylurea]	2.3	159	
CC(C)CC(c1ccc2c(cnn2-c2ccc(F)cc2)c1)C(C)(C)CNC(=O)N[C@@H](C)CO (stereo partly drawn) [Example 47, 1-(3-(1-(4-fluorophenyl)-1H-indazol-5-yl)-2,2,5-trimethylhexyl)-3-((S)-1-hydroxypropan-2-yl)urea]	1.3	204	
CC(C)CC(c1ccc2c(cnn2-c2ccc(F)cc2)c1)C(C)(C)CNC(=O)NC(CO)Cc1ccc(Cl)cc1 (centres unmarked) [Example 80, 1-(1-(4-chlorophenyl)-3-hydroxypropan-2-yl)-3-(3-(1-(4-fluorophenyl)-1H-indazol-5-yl)-2,2,5-trimethylhexyl)urea]	3	234	
CC(C)CC(c1ccc2c(cnn2-c2ccc(F)cc2)c1)C(C)(C)CNC(=O)[C@H](O)C(C)(C)C (single isomer, unassigned) [Example 69 diastA, N-(3-(1-(4-fluorophenyl)-1H-indazol-5-yl)-2,2,5-trimethylhexyl)-2-hydroxy-3,3-dimethylbutanamide]	3.7	> 10000	
CC(C)CC(c1ccc2c(cnn2-c2ccc(F)cc2)c1)C(C)(C)CNC(=O)NC(C)(C)CC(=O)O (centres unmarked) [Example 51, 3-(3-(3-(1-(4-fluorophenyl)-1H-indazol-5-yl)-2,2,5-trimethylhexyl)ureido)-3-methylbutanoic acid]	3	624	
CCC(c1ccc2c(cnn2-c2ccc(F)cc2)c1)C(C)(C)CNC(=O)NC(C)(C)C (centres unmarked) [Example 101, 1-tert-butyl-3-(3-(1-(4-fluorophenyl)-1H-indazol-5-yl)-2,2-dimethylpentyl)urea]	2.1	132	
CC(CNC(=O)NC(C)(C)C)C(c1ccccc1)c1ccc2c(cnn2-c2ccc(F)cc2)c1 (single isomer, unassigned) [Example 97C, 1-tert-butyl-3-(3-(1-(4-fluorophenyl)-1H-indazol-5-yl)-2-methyl-3-phenylpropyl)urea]	3.5		158
CC(C)CC(c1ccc2c(cnn2-c2ccc(F)cc2)c1)C(C)(C)CNC(=O)Nc1ccccc1 (centres unmarked) [Example 50, 1-(3-(1-(4-fluorophenyl)-1H-indazol-5-yl)-2,2,5-trimethylhexyl)-3-phenylurea]	7.5	223	
C=CCC(c1ccc2c(cnn2-c2ccc(F)cc2)c1)C(C)(C)CNC(=O)NC(C)(C)C (centres unmarked) [Example 105, 1-tert-butyl-3-(3-(1-(4-fluorophenyl)-1H-indazol-5-yl)-2,2-dimethylhex-5-enyl)urea]	1.7	77	
CC(CNS(=O)(=O)C(C)C)C(c1ccccc1)c1ccc2c(cnn2-c2ccc(F)cc2)c1 (centres unmarked) [Example 94, N-(3-(1-(4-fluorophenyl)-1H-indazol-5-yl)-2-methyl-3-phenylpropyl)propane-2-sulfonamide]	0.73	12	
Cc1ccc(C(C)(C)NC(=O)NCC(C)(C)C(CC(C)C)c2ccc3c(cnn3-c3ccc(F)cc3)c2)c(C)n1 (centres unmarked) [Example 52, 1-(2-(2,6-dimethylpyridin-3-yl)propan-2-yl)-3-(3-(1-(4-fluorophenyl)-1H-indazol-5-yl)-2,2,5-trimethylhexyl)urea]	2.3	772	
